One series concerns the target T1, hLAT1 (Homo sapiens, UniProt Q01650).
T1 construct: host or cells: LLC-PK1 (tetracycline-inducible, Invitrogen Gateway pT-REx System)
The series is described as follows: Substrate transport inhibition, [3H]-gabapentin uptake in LLC-PK1 cells expressing hLAT1. It counts as cell-based. How it is done:
(§1) Substrate transport inhibition studies were conducted with LLC-PK1 cells inducibly expressing either hLAT1 or hLAT2. Cells were plated in growth media with 1 μg/mL doxycycline at 30,000 cells/well in 96-well plates. Sixteen hours after plating, cells were treated with butyrate at a final concentration of 5 mM. The following day, cells were washed with PBS and incubated in the presence or absence of various concentrations of QBS10072S with 30,000 cpm/well of either [3H]-gabapentin (LAT1) or [3H]-leucine (LAT2) in PBS for 15 minutes at room temperature. The non-specific cell-bound activity was determined by the addition of 5 mM unlabeled gabapentin (LAT1) or leucine (LAT2). Unincorporated radioactivity was removed, and cells were washed three times with ice-cold PBS. Cells were lysed by adding scintillation fluid to each well, and cell-associated radioactivity was determined via scintillation counting using a multichannel 96-well plate reader (MicroBeta Trilux, Perkin Elmer, Waltham, MA). Data were expressed as the percent of specific radioactivity uptake in wells with no compound added. LC50s were determined by non-linear curve-fitting using GraphPad Prism (San Diego, CA).

The next series has as its target T2, hLAT2 (Homo sapiens, UniProt Q9UHI5).
T2 construct: host or cells: LLC-PK1 (tetracycline-inducible, Invitrogen Gateway pT-REx System)
T2 sequence (Q9UHI5 1-535): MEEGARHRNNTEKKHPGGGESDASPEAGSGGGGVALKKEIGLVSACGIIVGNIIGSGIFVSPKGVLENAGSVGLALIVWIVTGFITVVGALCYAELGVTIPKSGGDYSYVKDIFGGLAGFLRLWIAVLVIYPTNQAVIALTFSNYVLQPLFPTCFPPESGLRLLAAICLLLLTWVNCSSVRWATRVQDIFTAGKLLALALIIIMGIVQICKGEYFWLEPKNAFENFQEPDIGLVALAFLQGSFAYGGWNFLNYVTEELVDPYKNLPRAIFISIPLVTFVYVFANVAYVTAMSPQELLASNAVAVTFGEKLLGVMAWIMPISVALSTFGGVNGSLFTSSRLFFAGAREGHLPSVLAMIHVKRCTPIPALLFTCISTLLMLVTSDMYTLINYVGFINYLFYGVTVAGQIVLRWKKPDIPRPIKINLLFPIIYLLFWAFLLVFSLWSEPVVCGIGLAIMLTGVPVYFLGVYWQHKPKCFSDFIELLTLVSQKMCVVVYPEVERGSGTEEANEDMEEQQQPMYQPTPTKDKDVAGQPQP
T2 sequence (P08195 1-529 partner): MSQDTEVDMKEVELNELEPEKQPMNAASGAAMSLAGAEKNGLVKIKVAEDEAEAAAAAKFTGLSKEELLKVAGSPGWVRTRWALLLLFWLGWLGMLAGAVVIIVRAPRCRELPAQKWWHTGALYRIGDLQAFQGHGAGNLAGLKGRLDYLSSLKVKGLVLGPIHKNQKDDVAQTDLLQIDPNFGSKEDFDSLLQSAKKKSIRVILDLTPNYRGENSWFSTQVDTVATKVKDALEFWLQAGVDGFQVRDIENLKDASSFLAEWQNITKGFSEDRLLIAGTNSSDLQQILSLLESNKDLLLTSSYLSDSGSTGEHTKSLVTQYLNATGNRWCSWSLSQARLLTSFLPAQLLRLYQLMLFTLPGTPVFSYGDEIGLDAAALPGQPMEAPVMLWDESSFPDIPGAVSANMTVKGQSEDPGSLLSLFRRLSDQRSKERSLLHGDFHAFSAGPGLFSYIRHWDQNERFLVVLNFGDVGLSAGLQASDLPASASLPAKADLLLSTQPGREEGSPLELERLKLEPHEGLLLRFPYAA
Description: Substrate transport inhibition, [3H]-leucine uptake in LLC-PK1 cells expressing hLAT2. It counts as cell-based. How it is done: as §1

Series [1] can be described thus: Cytotoxicity in normal human astrocytes (CellTiter-Glo). It counts as cell-based. The conditions noted are these: normal human astrocytes (NHA), read-out: LC50. Background: In ATP-based viability assays light output follows the ATP content of the culture.
The subject of a further series is U87 cells. Description: WST1 cell viability assay, U87. It counts as cell-based. Conditions: Homo sapiens, U-87 MG; U87; QBS10072S 1 hour in PBS, TMZ 2 days, read day 7; read-out: LC50 (μM ± SD). How it is done:
(§2) In vitro activities of QBS10072S and temozolomide (TMZ) in U87 and U87-MGMT cells were assessed using the WST1 cell viability assay in 96-well plates in which 500/well of cells were plated in sextuplets for each condition. To avoid cell loss, the following washing and medium removing procedures were all done using a P200 pipet without vacuum aspiration. For QBS10072S treatment, cells were washed with PBS the next day and incubated with 50 μL of various concentrations of QBS10072S in PBS for 1 hour at 37°C. After incubation, 150 μL of growth medium was added to each well. The medium was subsequently changed every two days until day 7. For TMZ treatment, cells were treated with 100 μL of various concentrations of TMZ in a growth medium for 2 days. After incubation, cells were put back in a normal growth medium and continued culturing for five days. In the end, 10 μL of WST1 reagent was added to each well and incubated at 37°C for 4h before subjecting to plate reading at 450 nm and 690nm using an EnSpire multimode plate reader (PerkinElmer). Background (OD690nm) was subtracted and data were normalized to the control. LC50s were determined by non-linear regression using GraphPad Prism (GraphPad Software Inc., San Diego, California)
On the technique in general: Formazan colour is commonly taken as a measure of viable cells.

In the next series the test system is U87-MGMT cells. The series is described as follows: WST1 cell viability assay, U87-MGMT. It counts as cell-based. Conditions: Homo sapiens; U87-MGMT; QBS10072S 1 hour in PBS, TMZ 2 days, read day 7; read-out: LC50 (μM ± SD). How it is done: as §2
Series [2] concerns U251 intracerebral human GBM xenograft. Description: U251 intracerebral human GBM xenograft in athymic mice (BLI, survival). The conditions noted are these: temozolomide 4 mg/kg oral gavage daily for 5 days plus RT 1.5 Gy daily for 5 days; vehicle 35. It counts as in vivo, mouse. How it is done: Five-week-old female athymic mice (nu/nu, homozygous: Simonsen Laboratories, Gilroy, CA), housed under aseptic conditions, received intracranial tumor cell injection as previously described and as approved by the University of California San Francisco Institutional Animal Care and Use Committee, Protocol #: AN111064-03. Briefly, mice were anesthetized by intraperitoneal injection of ketamine (100 mg/kg) and xylazine (10 mg/kg) and injected with 3 μL of tumor cell suspension (300,000 cells total) into the right caudate-putamen. Coordinates: 3 mm to the right from bregma, on top of the coronal suture, and 3.5 mm depth. Injection rate: ~30 second/uL. For treatment studies, eight mice were used for each group for LN229 studies and nine mice per group for U251 studies. Treatments began when tumors entered the log-phase of growth as measured by luminescence, for the LN229 experiment on Day 21 and for U251 experiments on Day 14.
Dosing levels and frequency are described in the figure legends.
For bioluminescence imaging (BLI), mice were anesthetized as above, then administered 150 mg/kg of luciferin (D-luciferin potassium salt, Gold Biotechnology, St. Louis, MO) via intraperitoneal injection. Ten minutes after luciferin injection, mice were examined for tumor bioluminescence with an IVIS Lumina imaging station and Living Image software (Caliper Life Sciences, Alameda, CA), and regions of interest were recorded as photons per second per steradian per square cm.
Mice were anesthetized via inhalation of 2.5% isoflurane with 1 L of oxygen per minute for five minutes prior to being positioned on an irradiation platform located 16.3 cm from a cesium-137 source (JL Shepherd & Associates, San Fernando, CA). Eyes, respiratory tracts, and bodies were protected with lead shielding. Mice received whole-brain irradiation at a dose rate of 247 cGy/min until 1.5 Gy radiation had been administered. After irradiation, animals were monitored until recovery. Mice were irradiated once daily for five consecutive days. All mice received the first radiation dose when tumors were in a log-phase growth (Day 14) as determined by BLI.
Tumor-bearing mice were treated with temozolomide (TMZ) 4 mg/kg via oral gavage, starting on day 14 post U251 cell injection once daily for five days - concurrent therapy with RT. TMZ was obtained from the UCSF hospital pharmacy and formulated with the Ora-Plus suspending vehicle (Perrigo, Dublin, Ireland) with a working concentration of 1 mg/mL.

T1 sequence (Q01650 whole entry, one chain of several): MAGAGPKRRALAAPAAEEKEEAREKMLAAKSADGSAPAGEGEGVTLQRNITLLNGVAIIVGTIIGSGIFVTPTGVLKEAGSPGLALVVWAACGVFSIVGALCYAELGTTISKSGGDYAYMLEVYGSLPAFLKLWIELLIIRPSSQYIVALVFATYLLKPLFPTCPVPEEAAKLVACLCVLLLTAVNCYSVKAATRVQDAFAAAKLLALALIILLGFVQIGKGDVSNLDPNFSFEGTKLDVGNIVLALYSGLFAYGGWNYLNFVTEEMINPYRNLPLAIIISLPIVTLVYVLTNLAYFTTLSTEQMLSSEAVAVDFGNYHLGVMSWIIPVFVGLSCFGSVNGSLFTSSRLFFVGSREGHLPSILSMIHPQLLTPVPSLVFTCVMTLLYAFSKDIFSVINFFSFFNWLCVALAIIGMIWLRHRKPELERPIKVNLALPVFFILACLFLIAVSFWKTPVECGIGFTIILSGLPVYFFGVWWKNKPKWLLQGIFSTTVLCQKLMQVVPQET

On to `N[C@@H](Cc1ccc(N(CCCl)CCCl)cc1)C(=O)O` [Melphalan, melphalan, reference compound], for which the figures for the concentration for half-maximal inhibition (IC50) against hLAT1 and against hLAT2 were 170 µM and 390 µM, respectively. The CC50 at 30 min in series [1] worked out at 0.86 µM.

`Cn1nnc2c(C(N)=O)ncn2c1=O` [TMZ, temozolomide, reference compound]: the CC50 in the series on U87 cells was 82.3 ± 10.5 µM; with U87-MGMT cells, over 200 µM. Also, the median survival time in series [2] is 48 days.

Usually IC50 stands for the concentration that gives 50% inhibition. Read a high IC50 as a need for much substance.

The values above are taken from article PMC8482806, “A Novel Blood-Brain Barrier-Permeable Chemotherapeutic Agent for the Treatment of Glioblastoma” (Cureus, 2021).
